Read-outs that look alike come from different tables or passages of the source. Peptide text beside a SMILES is read from it. * marks the point of attachment. Cbz = O=C(OCc1ccccc1)*; CH2F = FC*
Assays:
PKR−/− BMDMs = format: cell-based, mouse
Method: A. Bone marrow derived macrophages (BMDMs) from PKR+/+ and PKR−/− mice were left untreated or treated with LPS plus SB202190 or LT (2.5 μg/ml PA+500 ng/ml LF), 15-deoxy-12,14-prostaglandin J2 (5 μM), or doxorubicin (10 μg/ml), as indicated. After 16 hrs, the cells were stained with Hoechst 33258 (blue) or annexin V-Alexa568 (red). […] (FIG. 9a) B. Bone marrow derived macrophages (BMDMs) from PKR+/+ or PKR−/− mice were incubated with LPS for various time periods (in days) and analyzed by TUNEL staining to determine the extent of apoptosis. […] (FIG. 9b)

[1] = test system: bone marrow derived macrophages (BMDMs); format: cell-based, mouse; details: for apoptotic response of BMDMs: C57BL/6J BMDMs
[2] = test system: J774A.1 macrophage-like cells; test: Nucleosomal DNA ladder in J774A.1 cells incubated with LPS plus SB202190 and pan-caspase inhibitor; format: cell-based; details: inhibitor 10, 100, 200 μM, 18 hrs
Method: A. J774A.1 macrophage-like cells were incubated with LPS plus SB202190 (10 μM) whereas NIH3T3 fibroblasts were incubated with mouse TNF-α (10 ng/ml) plus cycloheximide (25 μg/ml). At the indicated time points cell lysates were prepared and analyzed by immunoblotting with antibodies specific to caspase-8. (FIG. 8a) B. J774A.1 macrophage-like cells were incubated with LPS plus SB202190 (10 μm), whereas NIH3T3 fibroblasts were incubated with mouse TNF-α (10 ng/ml) plus cycloheximide (25 μg/ml). At the indicated time points cell lysates were prepared and analyzed by immunoblotting with antibodies specific to caspase-3. (FIG. 8b) C. J774A.1 macrophage-like cells were incubated with or without LPS in the absence or presence of SB202190. When indicated, increasing concentrations (10, 100, and 200 μM) of a pan-caspase inhibitor (ZVAD-FMK) were added. After 18 hrs, genomic DNA was isolated and analyzed by agarose gel electrophoresis and EtBr staining for appearance of nucleosomal ladders indicative of apoptosis. (FIG. 8c)

[3] = test system: IKKβ-deficient macrophages; test: TUNEL apoptosis of IKKβ-deficient macrophages treated with TLR agonists or TNF-α; format: cell-based, mouse; details: without p38 inhibition, 12 hrs
Method: Bone marrow derived macrophages from Ikkβ F/F (IKKβ+/+) or MX1Cre-Ikkβ F/F (IKKβ−/−) mice were untreated or treated with LPS (100 ng/ml), LTA from B. subtilis (10 μg/ml), poly(IC) (10 μg/ml), SBLP (Pam3CSK4, 1 μg/ml), CpG-containing DNA (1 μM), and mouse TNF-α (10 ng/ml). After 12 hrs, apoptotic cell death was quantitated by TUNEL staining. Inset, macrophage lysates were analyzed by immunoblotting with antibodies specific to IKKβ and p38. (FIG. 2e)

PKR = target: T1, PKR (Mus musculus, UniProt Q03963); test: PKR activation by autophosphorylation and eIF2α phosphorylation in macrophages; format: cell-based; details: for PKR activation (autophosphorylation, eIF2α phosphorylation): wt macrophages
T1 construct: endogenous in cells; host or cells: wild-type mouse bone marrow derived macrophages (BMDMs)
T1 sequence (Q03963 1-515): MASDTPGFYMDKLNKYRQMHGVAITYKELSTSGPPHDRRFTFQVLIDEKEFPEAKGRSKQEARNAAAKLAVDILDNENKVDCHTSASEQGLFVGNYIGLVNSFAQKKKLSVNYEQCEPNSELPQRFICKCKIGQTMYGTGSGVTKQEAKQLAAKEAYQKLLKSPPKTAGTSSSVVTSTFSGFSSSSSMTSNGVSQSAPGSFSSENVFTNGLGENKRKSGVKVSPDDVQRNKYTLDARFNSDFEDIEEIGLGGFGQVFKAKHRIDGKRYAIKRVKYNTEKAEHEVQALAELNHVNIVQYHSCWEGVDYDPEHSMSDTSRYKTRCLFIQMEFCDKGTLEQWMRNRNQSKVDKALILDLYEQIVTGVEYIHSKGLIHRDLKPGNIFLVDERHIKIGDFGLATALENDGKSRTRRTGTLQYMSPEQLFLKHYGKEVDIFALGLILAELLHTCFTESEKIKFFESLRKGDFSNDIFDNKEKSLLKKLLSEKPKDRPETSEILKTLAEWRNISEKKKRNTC
Method: Whole cell extracts were prepared and PKR activity was measured by autophosphorylation (Gusella et al. J Immunol 154, 345-54, 1995) after immunoprecipitation with anti-PKR antibody (Santa Cruz).
Phosphorylation of eIF2α was detected by immunoblotting with antibody against phosphorylated eIF2α (Biosource, Camarillo, Calif.). The same blot was stripped and probed with antibody against total eIF2αIKK and MAPK activation were measured as described (Park et al. Science 297, 2048-51, 2002). Phosphorylation of STAT1 (Medzhitov et al. Nature 388, 394-7 (1997) was monitored by immunoblotting with anti-phospho-STAT1 antibody (Cell Signaling, Beverly, Mass.).
Bone marrow derived macrophages (BMDMs) (wt) were stimulated with LPS (100 ng/ml) or poly(IC) (10 μg/ml) or left unstimulated. At the indicated time points cells were lysed and PKR activation was monitored by autophosphorylation. Gel loading was controlled by immunoblotting for PKR. The same lysates were monitored for eIF-2α phosphorylation by immunoblotting with antibodies specific for phosphorylated eIF-2a (P-eIF-2α) and total eIF-2α (FIG. 3a)

A1/Bfl1 = test: Immunoblotting of A1/Bfl1 and cIAP-1 after poly(IC) transfection and LPS; format: cell-based, mouse; details: wt BMDMs, poly(IC) transfection followed by LPS
Method: PKR+/+ and PKR−/− BMDMs were transfected with or without poly(IC) using Lipofectamine (Diebold et al. Nature 424, 324-328, 2003). After 6 hrs, LPS was added and the levels of A1/Bfl1 and cIAP-1 were examined by immunoblotting. (FIG. 5b)

[4] = test system: bone marrow derived macrophages (BMDMs); format: cell-based, mouse; details: BMDMs preincubated with poly(IC) 6 hrs before infection
S. typhimurium = test: Systemic S. typhimurium infection of mice pretreated with poly(IC); format: in vivo
Method: Mice (7-10 weeks old) were injected i.p. with either PBS or 200-300 μg poly(IC) in PBS. After 20 hrs, mice were injected i.p. with 10^6 S. typhiumurium 14028 in PBS. Mice that were still alive were sacrificed after 24 hrs and their spleens removed. For certain experiments, tissue was homogenized in PBS+0.1% Triton X-100. To determine bacterial counts, tissue homogenates were diluted in PBS and plated on LB agar and colonies were counted after overnight incubation at 37° C.
B. Mice (wt and PKR−/−) were Injected i.p. with PBS or 200-300 μg Poly(IC) in PBS
After 20 hrs the mice were injected i.p. with 10^6 S. typhimurium (14028) bacteria suspended in PBS. After 24 hrs, survival was monitored and mice that were still alive were sacrificed and the numbers of live bacteria within their spleens determined. * represents p=0.007. (FIG. 7b)
C. Mice were Treated as Above and Parts of their Spleens Analyzed for the Presence Of Apoptotic Cells by TUNEL Staining
Photograph was taken from the splenic red pulp where macrophages reside. (FIG. 7c)

[5] = with p38 inhibition (SB202190 10 μM), 18 hrs

Molecule: CCCCCC=CC=C1C(=O)C=C[C@@H]1CC=CCCCC(=O)O [15-deoxy-12,14-prostaglandin J2]
- apoptosis of PKR−/− BMDMs (PKR−/− BMDMs): still underwent apoptosis

Molecule: Oc1ccc(-c2nc(-c3ccncc3)c(-c3ccc(F)cc3)[nH]2)cc1 [SB202190]
- macrophage apoptosis induced by heat-inactivated B. anthracis ([1]; in the presence of SB202190 (10 μM), 18 hrs, TUNEL): extensive macrophage apoptosis

Molecule: C[C@@H]1C[C@@H]([C@H](O)CC2CC(=O)NC(=O)C2)C(=O)[C@@H](C)C1 [cycloheximide]
- apoptosis on mere incubation ([1]; wt or PKR−/− BMDMs, cycloheximide 10 μg/ml): triggered apoptosis

Molecule: COc1cccc2c1C(=O)c1c(O)c3c(c(O)c1C2=O)C[C@@](O)(C(=O)CO)C[C@@H]3O[C@H]1C[C@H](N)[C@H](O)[C@H](C)O1 [doxorubicin]
- apoptosis of PKR−/− BMDMs (PKR−/− BMDMs; PKR−/− BMDMs, 16 hrs, annexin V): still underwent apoptosis

Molecule: COC(=O)C[C@H](NC(=O)[C@H](C)NC(=O)[C@@H](NC(=O)OCc1ccccc1)C(C)C)C(=O)CF [pan-caspase inhibitor, ZVAD-FMK] (Cbz-Val-Ala-Asp(OMe)-CH2F)
- effect on LPS-induced macrophage apoptosis [2]: apoptosis was inhibited

Molecule: Pam3CSK4 [SBLP]
- apoptotic response of BMDMs [1, 5]: Little apoptosis

Molecule: TNF-α
- apoptosis of IKKβ-deficient macrophages [3]: underwent apoptosis

Molecule: lipopolysaccharide [LPS]
- apoptotic response of BMDMs [1, 5]: strong apoptotic response
- apoptosis on prolonged incubation ([1]; wt BMDMs, without p38 inhibition, prolonged incubation (days)): resulted in apoptosis
- PKR activation (autophosphorylation, eIF2α phosphorylation) (PKR): rapidly activated
- apoptosis of IKKβ-deficient macrophages [3]: underwent apoptosis

Molecule: lipoteichoiec acid [LTA]
- apoptosis of IKKβ-deficient macrophages [3]: underwent apoptosis

Molecule: poly(IC)
- accumulation of A1/Bfl1 (A1/Bfl1): inhibited the accumulation
- apoptotic response of BMDMs ([1]; without p38 inhibition, 18 hrs): weak apoptotic response
- apoptosis after transfection versus simple addition to culture medium ([1]; poly(IC) transfection, LPS added 6 hrs later, 18 hrs): higher level of apoptosis
- sensitization of BMDMs to LPS-induced apoptosis ([1]; with LPS, without SB202190): renders BMDMs susceptible to LPS-induced apoptosis
- effect on apoptosis in response to live S. typhimurium or Y. pseudotuberculosis [4]: potentiated apoptosis
- PKR activity after transfection versus simple addition to culture medium (PKR; poly(IC) introduced by transfection (lipofectamine)): higher levels of PKR activity
- PKR activation (autophosphorylation, eIF2α phosphorylation) (PKR): rapidly activated
- apoptosis of IKKβ-deficient macrophages [3]: more susceptible
- enhancement of bacterial load, apoptosis or mortality (S. typhimurium; PKR−/− mice, poly(IC) pretreatment): little enhancement
- number of apoptotic cells in the red pulp of the spleens (S. typhimurium; S. typhimurium infected wt mice, poly(IC) pretreatment): increased the number of apoptotic cells
- increase in number of live bacteria recovered from the spleen (S. typhimurium; wt mice, 200-300 μg poly(IC) i.p. before S. typhimurium, 24 hrs): 3.5 fold
- mortality caused by S. typhimurium infection (S. typhimurium; wt mice, poly(IC) pretreatment): increased the mortality
